Experimental findings from US8703953B2, “Aryl ether-base kinase inhibitors” (Bristol-Myers Squibb Company, priority 2012, dated 2014) are described below.

Structures are written as SMILES.

For assay [1], the target named is T1, GST-Xa-hAAK1 (Homo sapiens, UniProt Q2M2I8).
T1 construct: made in house
Nature of the assay: AAK1 Kinase Assay (Caliper LabChip, fluoresceinated peptide substrate). The note with it: ATP 22 μM. It counts as biochemical. On the procedure: The assays were performed in U-bottom 384-well plates. The final assay volume was 30 μl prepared from 15 μl additions of enzyme and substrates (fluoresceinated peptide (5-FAM)-Aha-[…]-NH2 and ATP) and test compounds in assay buffer (10 mM Tris-HCL pH 7.4, 10 mM MgCl2, 0.01% Tween-20 and 1.0 mM DTT). The reactions were initiated by the combination of bacterially expressed, GST-Xa-hAAK1 with substrates and test compounds. The reactions were incubated at room temperature for 3 hours and terminated by adding 60 μl of 35 mM EDTA buffer to each sample. The reactions were analyzed on the Caliper LabChip 3000 (Caliper, Hopkinton, Mass.) by electrophoretic separation of the fluorescent substrate and phosphorylated product. […] The final concentration of reagents in the assays are ATP, 22 μM; (5-FAM)-Aha-[…]-NH2, 1.5 μM; GST-Xa-hAAK1, 3.5 nM; and DMSO, 1.6%. Dose response curves were generated to determine the concentration required inhibiting 50% of kinase activity (IC50). Compounds were dissolved at 10 mM in dimethylsulfoxide (DMSO) and evaluated at eleven concentrations. IC50 values were derived by non-linear regression analysis.

Assay [2] deals with T2, AAK1 (full length human) (Homo sapiens, UniProt Q2M2I8).
T2 construct: HA; expressed in transfected cells; host or cells: HEK293F
T2 sequence (Q2M2I8 whole entry): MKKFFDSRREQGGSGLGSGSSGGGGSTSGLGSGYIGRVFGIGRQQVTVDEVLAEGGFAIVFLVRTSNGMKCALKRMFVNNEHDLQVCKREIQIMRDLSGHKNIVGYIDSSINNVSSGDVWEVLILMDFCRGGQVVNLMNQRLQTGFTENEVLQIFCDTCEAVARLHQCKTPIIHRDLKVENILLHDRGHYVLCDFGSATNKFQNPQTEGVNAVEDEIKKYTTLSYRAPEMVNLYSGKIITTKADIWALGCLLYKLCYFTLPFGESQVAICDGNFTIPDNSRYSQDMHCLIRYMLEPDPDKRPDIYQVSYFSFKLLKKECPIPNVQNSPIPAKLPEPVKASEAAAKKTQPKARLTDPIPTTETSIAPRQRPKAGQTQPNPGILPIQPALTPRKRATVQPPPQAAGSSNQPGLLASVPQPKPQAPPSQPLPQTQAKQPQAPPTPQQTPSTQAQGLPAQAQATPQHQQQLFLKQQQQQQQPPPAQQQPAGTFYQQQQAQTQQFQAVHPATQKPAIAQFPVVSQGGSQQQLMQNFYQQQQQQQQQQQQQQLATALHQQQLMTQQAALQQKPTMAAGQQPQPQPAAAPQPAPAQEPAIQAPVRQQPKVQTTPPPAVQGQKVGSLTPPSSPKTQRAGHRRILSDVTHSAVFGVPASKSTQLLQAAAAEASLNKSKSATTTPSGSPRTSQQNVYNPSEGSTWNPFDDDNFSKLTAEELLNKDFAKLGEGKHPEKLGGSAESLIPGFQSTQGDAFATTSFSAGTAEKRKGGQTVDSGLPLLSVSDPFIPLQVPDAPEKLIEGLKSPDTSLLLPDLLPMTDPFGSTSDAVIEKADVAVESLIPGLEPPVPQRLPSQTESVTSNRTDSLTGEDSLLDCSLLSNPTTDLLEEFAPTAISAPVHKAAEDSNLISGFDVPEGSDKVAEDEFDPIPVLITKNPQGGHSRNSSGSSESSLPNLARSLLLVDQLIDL
The assay can be described thus: HEK281 Cell-Based Assay (HEK293F cells transfected with AAK1 and AP2M1; phospho-mu2 Western blot). The conditions noted are these: 3 h. On the procedure:
HEK293F cells were cultured in media containing DMEM (Gibco, cat. #11965), 10% FBS (SAFC Biosciences, cat. #12103C), 1× GPS (glutamine, penicillin and streptomycin). On day one, cells were plated on a 10 cm dish so that they are ˜80% confluent at time of transfection. Roughly 12 million cells were in a 10 cm dish at time of transfection. On day two, each dish was transfected with 48 ug DNA and 144 μl Lipofectamine 2000 (Invitrogen, cat. #11668-019). The DNA was comprised of a mixture (per 10 cm dish) containing 3 ug AAK1/HA/pIRES (full length human, NCBI accession no. NP_055726.2), 45 μg Flag/AP2MI/pcDNA (full length human), and 1.5 ml OPTI-MEM. The Lipofectamine 2000 is made up of a mixture (per 10 cm dish) containing 144 μl Lipofectamine 2000 and 1.5 ml OPTI-MEM. Each mixture was transferred to individual 15 ml tubes and incubated at RT for 5 minutes, and then the two mixes were combined and incubated at RT for 20 minutes. Growth media was then aspirated from each 10 cm plate and replaced with 10 ml of DMEM+10% FBS (no GPS). Finally, 3 ml DNA/Lipofectamine mix was added to each 10 cm dish and mix gently followed by incubate of plate overnight at 37° C. and 5% CO2.
On day three, compounds were diluted in 100% DMSO at 1000× final concentration, followed by 3-fold serial dilutions for a total of 5 concentrations tested. Four compounds were tested per 10 cm dish. One ul of each compound dilution was then pipetted into a deep-well, 96-well plate, followed by addition of 500 μl DMEM+0.5% FBS into each well for a 2× final concentration of each compound. Cells were resuspended in a 10 cm dish by simple pipetting (HEK293 cells come off the plate that easy at this point) and then transferred to a 50 ml conical tube and pelleted by centrifugation at 1000 rpm for 5 min. Cell pellets were then resuspended in 2.75 ml DMEM+0.5% FBS per 10 cm dish and 100 μl of cell suspension transferred into each well of 96-well TC plate. Finally, 100 μl of 2× compound diluted in DMEM+0.5% FBS was then added into wells containing cell suspension for a 1× final concentration. Plates were then incubated at 37° C. and 5% CO2 for 3 hours followed by transferring of cell suspensions from each well into 12-tube PCR strips. The PCR strips were spun in a tip rack at 1000 rpm for 5 minutes to pellet cells and media was then removed by pipetting without disturbing the cell pellet.
To prepare for Western Blot analysis, cell pellets were resuspend in 40 ul 1× LDS-PAGE sample buffer (Invitrogen, cat. #NP0008)+2× Halt phophatase and protease inhibitor cocktail (Thermo Scientific, cat. #1861284), followed by sonicating each with microtip sonicator set at 5 for 8-10 seconds. Five ul of 10× NuPage Sample Reducing Agent (with […]) was to each sample followed by heat denaturing at 70C for 10 min on PCR machine. A total of 10 μl per sample was loaded into each lane of a 4-20% Tris-Glycine Criterion 26-well gel (Biorad, cat. #345-0034) for the phospho-mu2 blot and 10 μl per lane in a 4-12% Bis-Tris (+MES buffer) NuPAGE 26-well gel (Invitrogen, cat. #WG1403BX10) for the mu2 blot. For controls, 2 ng of phospho-mu2 or 20 ng mu2/Flag proteins were loaded in the last well of each gel. After SDS-PAGE, samples on each gel were transferred to PVDF membrane using an iBlot and membranes were blocked for one hour in TBST+5% milk, followed by wash 3× for 5-10 min with TBST. Criterion gels were probed with rabbit anti-phospho-mu2 (1:5000; a rabbit polyclonal antibody produced by New England Peptide and affinity purified at Lexicon) in TBST+5% BSA, whereas, NuPAGE gels were probed with mouse anti-Flag (1:500; Sigma, cat. #F1804) in TBST+5% milk, and these primary antibodies were incubated overnight at 4° C. on a rocker. […]
A general note: Immunoblotting shows a protein as a band on a membrane.

As a reminder, the IC50 is the concentration that inhibits the measured activity by half.

T1 sequence (Q2M2I8 whole entry): as above

For `NC(CCC(F)(F)F)COc1ccc2c(c1)OCc1cnccc1-2` (racemic) [Example 17, 1-(5H-chromeno[3,4-c]pyridin-8-yloxy)-5,5,5-trifluoropentan-2-amine], the IC50 in assay [1] (listed as IC50 ranges) and in assay [2] (listed as IC50 ranges) was 10 to 100 nM each time.
With `CC(=O)Nc1cc2c(cn1)COc1cc(OCC(N)CCC(F)(F)F)ccc1-2` (racemic) [Example 36, N-(8-((2-amino-5,5,5-trifluoropentyl)oxy)-5H-chromeno[3,4-c]pyridin-2-yl)acetamide], the results for the half-maximal inhibitory concentration (IC50) in assay [1] (listed as IC50 ranges) and in assay [2] (listed as IC50 ranges) were 10 to 100 nM and 1 to 10 nM, respectively.
In the same order, the values of `CC(=O)Nc1cc2c(cn1)COc1cc(OCC(C)(N)CC(C)C)ccc1-2` (racemic) [Example 44, N-(8-(2-amino-2,4-dimethylpentyloxy)-5H-chromeno[3,4-c]pyridin-2-yl)acetamide] are 1 to 10 nM and 10 to 100 nM.
On to `CC(C)C[C@H](N)COc1ccc2c(c1)OC(C)c1cnccc1-2` (single isomer, unassigned) [Example 6a], for which the IC50 in assay [1] (numeric values) amounted to 27 nM; in assay [2] (numeric values), 25 nM.
In the same order, the values of `CC(C)C[C@H](N)COc1ccc2c(c1)OC(C)c1cnccc1-2` (single isomer, unassigned) [Example 6b] are 9.1 nM and 4.3 nM.
The corresponding values for `CC(C)C[C@@H](N)COc1ccc2c(c1)OC(C)c1cnccc1-2` (single isomer, unassigned) [Example 7a] are 81 nM and > 300 nM.
`CC(C)C[C@H](N)COc1ccc2c(c1)OC(C1CC1)c1cnccc1-2` (single isomer, unassigned) [Example 8b]: the 50% inhibitory concentration (IC50) in assay [1] (listed as IC50 ranges) and in assay [2] (listed as IC50 ranges) was 10 to 100 nM throughout.
For the compound `CC(C)C[C@@H](N)COc1ccc2c(c1)OC(C1CC1)c1cnccc1-2` (single isomer, unassigned) [Example 9a], the IC50 in assay [1] (listed as IC50 ranges) was 100 to 1000 nM; in assay [2] (numeric values) it was > 300 nM.
On to `CCC1Oc2cc(OC[C@@H](N)CC(C)C)ccc2-c2ccncc21` (single isomer, unassigned) [Example 10a], for which the IC50 in assay [1] (listed as IC50 ranges) and in assay [2] (listed as IC50 ranges) was 10 to 100 nM throughout.
On to `CC(C)C[C@H](N)COc1ccc2c(c1)OCc1cnccc1-2` [Example 5, (S)-1-(5H-chromeno[3,4-c]pyridin-8-yloxy)-4-methylpentan-2-amine], for which the 50% inhibitory concentration (IC50) was determined as 3.3 nM in assay [1] (numeric values) and 8.4 nM in assay [2] (numeric values).
The corresponding values for `CC(C)C[C@H](N)COc1ccc2c(c1)oc(=O)c1cnccc12` [Example 11, (S)-8-(2-amino-4-methylpentyloxy)-5H-chromeno[3,4-c]pyridin-5-one] are 22 nM and 38 nM.
As to `CC(=O)Nc1nccc2c1COc1cc(OC[C@@H](N)CC(C)C)ccc1-2` [Example 12, (S)-N-(8-(2-amino-4-methylpentyloxy)-5H-chromeno[3,4-c]pyridin-4-yl)acetamide], the half-inhibitory concentration (IC50) in assay [1] (listed as IC50 ranges) and in assay [2] (listed as IC50 ranges) was 10 to 100 nM each time.
Regarding `CC(C)C[C@H](N)COc1ccc2c(c1)OCc1c-2ccnc1N` [Example 13, (S)-8-((2-amino-4-methylpentyl)oxy)-5H-chromeno[3,4-c]pyridin-4-amine], the IC50 in assay [1] (listed as IC50 ranges) and in assay [2] (listed as IC50 ranges) was 1 to 10 nM in each case.
As for `CC(C)C[C@H](N)COc1cc2c(cc1Br)-c1ccncc1CO2` [Example 14, (S)-1-(9-bromo-5H-chromeno[3,4-c]pyridin-8-yloxy)-4-methylpentan-2-amine], the IC50 in assay [1] (listed as IC50 ranges) and in assay [2] (listed as IC50 ranges) was 1 to 10 nM in each case.
Consider `CC(C)C[C@H](N)COc1ccc2c(c1)OC(C)c1c-2ccnc1N` (stereo partly drawn) [Example 15, 8-(((S)-2-amino-4-methylpentyl)oxy)-5-methyl-5H-chromeno[3,4-c]pyridin-4-amine], for which the half-inhibitory concentration (IC50) in assay [1] (listed as IC50 ranges) and in assay [2] (listed as IC50 ranges) was 1 to 10 nM in each case.
For the compound `CC(C)C[C@H](N)COc1ccc2c(c1)OCc1cncc(F)c1-2` [Example 16, (S)-1-((1-fluoro-5H-chromeno[3,4-c]pyridin-8-yl)oxy)-4-methylpentan-2-amine], the half-maximal inhibitory concentration (IC50) in assay [1] (listed as IC50 ranges) and in assay [2] (listed as IC50 ranges) was 1 to 10 nM each time.
For `CC(=O)Nc1cc2c(cn1)COc1cc(OC[C@@H](N)CC(C)C)ccc1-2` [Example 18, (S)-N-(8-(2-amino-4-methylpentyloxy)-5H-chromeno[3,4-c]pyridin-2-yl)acetamide], the concentration for half-maximal inhibition (IC50) in assay [1] (listed as IC50 ranges) lay in the range of 1 to 10 nM; in assay [2] (listed as IC50 ranges) it was 10 to 100 nM.
As for `CC(=O)Nc1cc2c(cn1)COc1cc(OC[C@@H](N)CC(C)C)c(Cl)cc1-2` [Example 32, (S)-N-(8-((2-amino-4-methylpentyl)oxy)-9-chloro-5H-chromeno[3,4-c]pyridin-2-yl)acetamide], the concentration for half-maximal inhibition (IC50) in assay [1] (numeric values) was 66 nM; in assay [2] (numeric values), > 100 nM.
Take `CC(C)C[C@H](N)COc1ccc2c(c1)OCc1cnc(N)cc1-2` [Example 33, (S)-8-(2-amino-4-methylpentyloxy)-5H-chromeno[3,4-c]pyridin-2-amine]: the IC50 in assay [1] (listed as IC50 ranges) and in assay [2] (listed as IC50 ranges) was 10 to 100 nM each time.
As for `CC(=O)Nc1cc2c(cn1)COc1c-2ccc(OC[C@@H](N)CC(C)C)c1C` [Example 35, (S)-N-(8-((2-amino-4-methylpentyl)oxy)-7-methyl-5H-chromeno[3,4-c]pyridin-2-yl)acetamide], the IC50 in assay [1] (listed as IC50 ranges) and in assay [2] (listed as IC50 ranges) was < 1 nM in each case.
Consider `COc1c(OC[C@@H](N)CC(C)C)ccc2c1OCc1cnc(NC(C)=O)cc1-2` [Example 37, (S)-N-(8-((2-amino-4-methylpentyl)oxy)-7-methoxy-5H-chromeno[3,4-c]pyridin-2-yl)acetamide], for which the results for the IC50 in assay [1] (listed as IC50 ranges) and in assay [2] (listed as IC50 ranges) were 10 to 100 nM and 1 to 10 nM, respectively.
In the same order, the values of `CC(=O)Nc1cc2c(cn1)COc1c-2ccc(OC[C@@H](N)CC(C)C)c1C(F)F` [Example 38, (S)-N-(8-(2-amino-4-methylpentyloxy)-7-(difluoromethyl)-5H-chromeno[3,4-c]pyridin-2-yl)acetamide] are < 1 nM and 1 to 10 nM.
Turning to `CC(=O)Nc1cc2c(cn1)COc1c-2ccc(OC[C@@H](N)CC(C)C)c1F` [Example 41, (S)-N-(8-((2-amino-4-methylpentyl)oxy)-7-fluoro-5H-chromeno[3,4-c]pyridin-2-yl)acetamide], the results for the IC50 in assay [1] (numeric values) and in assay [2] (numeric values) were 0.3 nM and 2.1 nM, respectively.
In the same order, the values of `CC(C)C[C@H](N)COc1ccc2c(c1)OCc1cnc(NC(=O)C3CC3)cc1-2` [Example 42, (S)-N-(8-(2-amino-4-methylpentyloxy)-5H-chromeno[3,4-c]pyridin-2-yl)cyclopropanecarboxamide] are 0.5 nM and 2.1 nM.
